Structures are written as SMILES.

One assay deals with Tfeb. Nature of the assay: TFEB immunocytochemistry in mouse primary astrocytes and neurons. Type of assay: cell-based. To be noted: 5 μM aspirin, 12 h. As for the experimental part: Isolation of Primary Mouse Astroglia: Astroglia were isolated from mixed glial cultures as described (24, 25) according to the procedure of Giulian and Baker (26). Briefly, on day 9, the mixed glial cultures were washed three times with Dulbecco's modified Eagle's medium/F-12 and subjected to shaking at 240 rpm for 2 h at 37° C. on a rotary shaker to remove microglia. After 2 days, the shaking was repeated for 24 h for the removal of oligodendroglia and to ensure the complete removal of all nonastroglial cells. The attached cells were seeded onto new plates for further studies.
Isolation of Primary Mouse Neurons: Fetal (E18-E16) mouse neurons were prepared as previously described (27) with modifications. Whole brains were removed and the cells were washed by centrifugation three times at 1200 rpm for 10 min, the pellet dissociated and the cells plated at 10% confluence in 8-well chamber slides pre-treated for >2 hr with Poly-D-Lysine (Sigma, St. Louis, MO). After 4 min, the non-adherent cell suspension was aspirated and […] complete Neurobasal media (Invitrogen) supplemented with 2% B27 was added to each well. The cells were incubated for 4 days prior to experimentation. […] The cells were stimulated with gemfibrozil in Neurobasal media supplemented with 2% B27 minus antioxidants (Invitrogen) for 24 hr prior to methanol fixation and immunostaining.
Immunostaining of Cells: Immunocytochemistry was performed as described earlier (29). Briefly, 8 well chamber slides containing mouse primary astrocytes, mouse neurons were cultured to 70-80% confluence were fixed with chilled Methanol (Fisher Scientific, Waltham, MA) overnight, followed by two brief rinses with filtered PBS. […] The samples were run in an EtOH and Xylene (Fisher) gradient, mounted, and observed under Olympus BX41 fluorescence microscope.

Assay [1] concerns PPAR luciferase reporter (PPRE-x3-TK-luc). Description: PPAR luciferase reporter (PPRE-x3-TK-luc) in astrocytes. The class given is cell-based, mouse. To be noted: different doses of aspirin, 4 h. Here is the method: (§1) FIG. 14(A)-(B) illustrates activation of PPARα by aspirin in primary mouse astrocytes. 14(A) Cells were treated with 5 μM aspirin for different min intervals followed by isolation of nuclear extracts and electrophoretic mobility shift assay for monitoring DNA-binding activity of PPARα using PPARα-binding site of the Tfeb promoter as a probe. 14(B) Astrocytes isolated from wild type, PPARα (−/−) and PPARβ (−/−) mice were transfected with PPAR luciferase reporter (PPRE-x3-TK-luc) plasmid and after 24 h of transfection, cells were stimulated with different doses of aspirin. After 4 h, firefly luciferase activity was measured in total cell extracts. Results are mean +SD of three different experiments. ^ap<0.001 vs control.
A general note: A reporter such as luciferase makes a cellular process visible.

The target of the next assay is T1, PPARα (Mus musculus, UniProt P23204).
T1 construct: endogenous in cells; host or cells: primary mouse astrocytes (nuclear extracts)
T1 sequence (P23204 1-468): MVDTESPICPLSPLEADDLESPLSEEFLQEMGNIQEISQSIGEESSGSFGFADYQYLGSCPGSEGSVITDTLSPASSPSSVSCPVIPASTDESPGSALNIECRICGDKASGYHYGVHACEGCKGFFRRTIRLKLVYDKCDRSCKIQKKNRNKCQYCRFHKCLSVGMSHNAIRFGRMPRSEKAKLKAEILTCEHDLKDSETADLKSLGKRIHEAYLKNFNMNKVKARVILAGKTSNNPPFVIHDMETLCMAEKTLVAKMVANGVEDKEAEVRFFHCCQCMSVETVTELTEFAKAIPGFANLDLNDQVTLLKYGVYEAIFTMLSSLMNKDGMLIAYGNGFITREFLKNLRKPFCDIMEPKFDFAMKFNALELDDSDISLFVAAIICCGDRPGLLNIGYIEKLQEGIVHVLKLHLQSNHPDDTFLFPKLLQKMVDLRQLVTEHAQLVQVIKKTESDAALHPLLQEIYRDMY
T1 sequence (P28700 1-467 partner): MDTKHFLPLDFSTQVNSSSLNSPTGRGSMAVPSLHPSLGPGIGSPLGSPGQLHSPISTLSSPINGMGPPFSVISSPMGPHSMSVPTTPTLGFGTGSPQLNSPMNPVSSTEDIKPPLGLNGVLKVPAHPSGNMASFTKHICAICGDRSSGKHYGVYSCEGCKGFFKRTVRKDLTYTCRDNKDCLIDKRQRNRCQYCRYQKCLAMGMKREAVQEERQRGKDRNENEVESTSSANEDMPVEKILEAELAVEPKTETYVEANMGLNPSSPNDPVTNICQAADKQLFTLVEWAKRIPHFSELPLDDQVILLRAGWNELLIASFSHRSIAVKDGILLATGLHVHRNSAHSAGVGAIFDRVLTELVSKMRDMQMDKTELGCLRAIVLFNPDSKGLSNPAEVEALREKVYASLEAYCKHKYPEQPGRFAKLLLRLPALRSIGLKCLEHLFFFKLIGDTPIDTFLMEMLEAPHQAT
Description: Electrophoretic mobility shift assay of DNA-binding activity of PPARα. The class given is cell-based. To be noted: astrocytes, 5 μM aspirin, different min intervals. As for the experimental part:
as §1
On the technique in general: Mobility shift assays separate free from complexed probe on a gel.

Another assay deals with TPP1. Nature of the assay: TPP1 activity assay on cell extract of primary mouse astrocytes. The class given is cell-based. To be noted: 24 h. As for the experimental part: 12(A) Cells were treated with different concentrations of aspirin for 24 h under serum-free condition followed by Western blot for TPP1. 12(B) Cells were treated with 5 μM aspirin for different time periods under serum-free condition followed by Western blot for TPP1. Actin was run as a house keeping molecule. 12(C) Cells were treated with different concentrations of aspirin for 24 h under serum-free condition followed by TPP1 activity assay using cell extract containing 5 μg of total protein and Ala-Ala-Phe 7-amido-4-methylcoumarin as substrate. Results represent three independent experiments.

A further assay deals with Lamp2, Limp2 and Npc1. Nature of the assay: mRNA of lysosomal genes by real-time PCR in mouse primary astrocytes. The class given is cell-based. To be noted: 5 μM aspirin, serum-free. As for the experimental part:
Quantitative Real-Time PCR: The mRNA quantification was performed using the ABIPrism7700 sequence detection system (Applied Biosystems, Foster City, CA) using SYBR Select master mix (Applied Biosystems). The mRNA expression of the targeted genes was normalized to the level of Gapdh mRNA and data was processed by the ABI Sequence Detection System 1.6 software.
On the technique in general: In qPCR the cycle at which signal appears reflects the starting amount.

For `CC(=O)Oc1ccccc1C(=O)O` [aspirin], the “TFEB expression (immunofluorescence)” value in the assay on Tfeb (PPARα (−/−) astrocytes) is given as “not PPARα (−/−)”; with Tfeb (PPARβ (−/−) astrocytes), “induced the expression of TFEB”; in the assay with Tfeb (WT astrocytes), “induced the expression of TFEB”. Moreover, the figures for the PPRE-driven luciferase activity entry in assay [1] (PPARα (−/−) astrocytes), in assay [1] (PPARβ (−/−) astrocytes) and in assay [1] (WT astrocytes) were “not PPARα (−/−)”, “increased PPRE-driven luciferase activity” and “increased PPRE-driven luciferase activity”, respectively. On PPARα, the “DNA-binding activity of PPARα (EMSA)” value is “time-dependent increase in PPARα activation”. In addition, the TPP1 activity entry with TPP1 (aspirin 10 μM) is “not 10 μM”; in the assay with TPP1 (aspirin 2 and 5 μM) it was “increase in TPP1 activity”. The “LAMP2 mRNA expression (real-time PCR), time course” value in the assay with Lamp2, Limp2 and Npc1 is listed as “time-dependent increase in LAMP2 mRNA”.
